# What was measured:
# [1] = test system: 8-cell bovine embryos cultured singly; test: Example 7: Hb (1 μg/ml) in mBECM-S, 8-cell embryos derived from Hb-containing co-culture, cultured singly; type: cell-based
# Procedure: mBECM containing 10 μM β-mercaptoethanol was used to culture embryos, as described in J. Lim et al., “Roles of growth factors in the development of bovine embryos fertilized in vitro and cultured singly in a defined medium,” Reprod. Fertil. Dev., 8, 1199-1205 (1996). To culture individual 8-cell embryos we used mBECM supplemented with 1 ng/ml platelet derived growth factor type AB (PDGF; Upstate Biotechnology Inc., Lake Placid, N.Y.), 1 ng/ml transforming growth factor-β (TGF; R & D System, Minneapolis, Minn.), 50 ng/ml arachidonic acid (AA; Cayman Chemical Co., Ann Arbor, Mich.), 100 μM glutathione (GSH; Sigma Co.) and 1 mg/ml polyvinyl alcohol (PVA) (mBECM-S). mBECM to which 10% (v/v) FBS was added (mBECM-C) was used for co-culturing inseminated zygotes with CGs and for producing 8-cell embryos. Osmolarity of the medium was maintained within the range of 265-290 mOsm.
# The bovine cumulus-oocyte complexes (COCs) used were collected in Madison, Wis. (BOMED, Inc.), and were shipped in 2-ml of maturation medium in a battery powered incubator via overnight express mail service. Oocytes matured during transit and arrived within 24 h after exposure to maturation medium, pre-equilibrated at 39° C. in 5% CO2 in air. At 22-24 h after exposure to the medium, the COCs were inseminated in vitro as described in J. Lim et al., “Intracytoplasmic glutathione concentration and the role of β-mercaptoethanol in preimplantation development of bovine embryos,” Theriogenology, 46, 429-439 (1996). At 18 h post-insemination, COCs were cultured in groups (30-35 embryos) in a 4-well multidish (Nunc, Roskilde, Denmark) containing 0.8-ml of mBECM-C. Embryos were dislodged from CGs at 36-48 h post-insemination.
# In Example 1, embryos (83-85 per group) collected 18 h post-insemination were cultured in mBECM-C, to which 0, 0.008, or 0.04 mM SNP was added at 18 or 60 h post-insemination. In Example 2, 8-cell embryos (80 per group) were produced in a co-culture system containing CGs and mBECM-C, and then beginning at 60 h post-insemination were cultured singly in a defined culture medium (mBECM-S), to which 0, 0.0016, 0.008, or 0.04 mM of SNP (S-0501, Sigma Co.) was added. In Example 3 embryos, either uncleaved (n=99) or developed to the 2-cell stage (90), were collected 48 h post-insemination; and cleaved embryos, either developed to the morula stage (69) or degenerate (63) were collected 144 h post-insemination. NO metabolites were then measured in the embryos. In Example 4, three groups of 95 zygotes each were co-cultured with CGs in mBECM-C, to which 0, 1, or 10 μg/ml Hb (bovine, mainly methemoglobin, H-2500, Sigma Co.) was added. […] Inseminated oocytes (104 per group) were co-cultured with CGs in MBECM-C up to 192 h post-insemination; and Hb (1 μg/ml) was added to the medium at 18, 60, or 144 h post-insemination. In Example 6, inseminated oocytes (93 per group) were cultured in the presence or absence of CGs in mBECM-C to which either 0 or 1 μg/ml Hb was added. […]
# Oocytes or 8-cell embryos were randomly and equally allocated to each treatment group. In Examples 1, 2, and 4-7, oocytes or embryos that had developed to the 2-cell, 8-cell, >8-cell, 16-cell morula, and blastocyst stages were individually scored ‘1’ (developed) at 48, 60, 96, 120, 144 and 192 h post-insemination, respectively. […] Sums of the scores in each stage of development were evaluated by analysis of variance (ANOVA) using the general linear model (PROC-GLM) in the SAS program software. […]
# bovine blastocysts = test: Example 8 supplemental: blastocyst cell number by Hoechst 33342 stain; type: cell-based; conditions: 8 days after insemination; Hb 1 μg/ml added to culture medium; vs. 124.2±8.4
# Procedure: In Example 8, bovine follicular oocytes were collected from November 1996 to May 1997, and matured and fertilized in culture. (Oocytes collected during summer and early fall were not used in this study, to avoid interference from environmental heat stress on in vitro survival of embryos.) IVF embryos were collected at 18 h post-insemination and cultured in mBECM supplemented with FBS (10%, v/v), to which 0 or 1 μg/ml Hb (from bovine, mainly methemoglobin, H-2500, Sigma Co.) was added. Development of embryos to the 2-cell, 8-cell, 16-cell, morula, and blastocyst stages was monitored 48, 60, 120, 144 and 192 h post-insemination, respectively. As a supplemental experiment, some blastocysts in each treatment (20 or 28) were randomly collected, and the cell number of the blastocysts was counted by use of Hoechst stain 33342 and a fluorescent microscope (Diaphod, Nikkon, Tokyo, Japan). This experiment used 1675 embryos in 25 replicates, with IVF embryos randomly allotted among treatments.
substance,measurement,setting,value
hemoglobin [Hb],Number of embryos developed to >8-cell,"[1]; Hb 1 μg/ml present in mBECM-S, 100 8-cell embryos, examined 96 h",68
same,Number of embryos developed to 16-cell,"[1]; Hb 1 μg/ml present in mBECM-S, 100 8-cell embryos, examined 120 h",44
same,Number of embryos developed to Morula,"[1]; Hb 1 μg/ml present in mBECM-S, 100 8-cell embryos, examined 144 h",26
same,Number of embryos developed to Blastocyst,"[1]; Hb 1 μg/ml present in mBECM-S, 100 8-cell embryos, examined 192 h",8
same,effect on proportions of 8-cell embryos developing to each embryonic stage,"[1]; Hb added to mBECM-S, P>0.09",no significant effect
same,number of blastocyst cells,bovine blastocysts,128.6±7.1
